The source of these data is ChEMBL document CHEMBL5052856, “Inhibitors of apol1 and methods of using same” (2021).

For orientation: IC50 means the concentration at which inhibition is half-maximal.

One test addresses Apolipoprotein L1 (Homo sapiens, UniProt O14791). The test is described as follows: Inhibition of APOL1 G1 variant in human HEK293-T-REx cells measured by Thallium assay. Format: cell-based.
Test [1] deals with Trypanosoma brucei brucei. The experiment in a line: Antitrypanosomal activity against Trypanosoma brucei brucei assessed as trypanosome lysis using recombinant APOL1 protein G1 variant and measured by Alamar blue based fluoresence assay. The class given is functional, organism-based. In general terms: The colour change of resazurin is a common sign of viable cells or microbes.

Some results are limits rather than exact numbers.

On to `C[C@H](O)[C@@H](CO)NC(=O)[C@H]1C[C@H](c2c(-c3ccc(F)cc3)[nH]c3c(F)cc(F)cc32)C1`, for which the IC50 (on Apolipoprotein L1; in test [1]) was below 0.25 µM throughout.
`O=C(CC1CC(c2c(-c3ccc(F)cc3)[nH]c3c(F)cc(F)cc23)C1)N[C@@H](CO)C(F)(F)F` (some centres not stated): the IC50 against Apolipoprotein L1 is above 1 µM.
The molecule `C[C@H](NCC1CC(c2c(-c3ccc(F)cc3)[nH]c3c(F)cc(F)cc23)C1)C(N)=O` (some centres not stated) displayed an IC50 at Apolipoprotein L1 above 1 µM.
The molecule `CC(C)(NCC1CC(c2c(-c3ccc(F)cc3)[nH]c3c(F)cc(F)cc23)C1)C(N)=O` (configuration not stated) had a half-maximal inhibitory concentration (IC50) at Apolipoprotein L1 above 1 µM.
At Apolipoprotein L1, `NC(=O)C(CO)NCC1CC(c2c(-c3ccc(F)cc3)[nH]c3c(F)cc(F)cc23)C1` (configuration not stated) had a half-maximal inhibitory concentration (IC50) of 0.00025 µM.
The molecule `CNC(=O)CNC[C@H]1C[C@H](c2c(-c3ccc(F)cc3)[nH]c3c(F)cc(F)cc32)C1` yielded an IC50 against Apolipoprotein L1 below 0.25 µM.
`CN(C)C(=O)CNCC1CC(c2c(-c3ccc(F)cc3)[nH]c3c(F)cc(F)cc23)C1` (configuration not stated) showed a half-maximal inhibitory concentration (IC50) against Apolipoprotein L1 of 0.00025 µM.
For the molecule `COC1CC1NC(=O)[C@H]1C[C@H](c2c(-c3ccc(F)cc3)[nH]c3c(F)cc(F)cc32)C1` (some centres not stated), the half-inhibitory concentration (IC50) (at Apolipoprotein L1; in test [1]) was above 1 µM each time.
`O=C(CC1CC(c2c(-c3ccc(F)cc3)[nH]c3c(F)cc(F)cc23)C1)N[C@H](CO)C(F)(F)F` (some centres not stated): the IC50 on Apolipoprotein L1 was above 1 µM.
Consider `O=C(NC1CC(O)C1)[C@H]1C[C@H](c2c(-c3ccc(F)cc3)[nH]c3c(F)cc(F)cc32)C1` (some centres not stated), for which the IC50 at Apolipoprotein L1 came to 0.00025 µM; in test [1] it was 0.25 µM.
With `NCCCNC(=O)[C@H]1C[C@H](c2c(-c3ccc(F)cc3)[nH]c3c(F)cc(F)cc32)C1`, the IC50 was 0.00025 µM against Apolipoprotein L1 and below 0.25 µM in test [1].
In the case of `O=C(O)CNC(=O)[C@H]1C[C@H](c2c(-c3ccc(F)cc3)[nH]c3c(F)cc(F)cc32)C1`, the IC50 (on Apolipoprotein L1; in test [1]) was above 1 µM in each case.
In turn, `CNC(=O)C(C)NCC1CC(c2c(-c3ccc(F)cc3)[nH]c3c(F)cc(F)cc23)C1` (configuration not stated) yielded an IC50 against Apolipoprotein L1 of 0.00025 µM.
The same measure, in the same setting: as for `O=C(CNC[C@H]1C[C@H](c2c(-c3ccc(F)cc3)[nH]c3c(F)cc(F)cc32)C1)NCO`, the figure is below 0.25 µM.
As to `O=C(NC1CCOC1)[C@H]1C[C@H](c2c(-c3ccc(F)cc3)[nH]c3c(F)cc(F)cc32)C1` (some centres not stated), the IC50 against Apolipoprotein L1 is above 1 µM; in test [1] it was 0.25 µM.
For `COCCNC(=O)[C@H]1C[C@H](c2c(-c3ccc(F)cc3)[nH]c3c(F)cc(F)cc32)C1`, the figures for the IC50 (on Apolipoprotein L1; in test [1]) were above 1 µM and 0.25 µM, respectively.
As for `CC(C)CC(NCC1CC(c2c(-c3ccc(F)cc3)[nH]c3c(F)cc(F)cc23)C1)C(N)=O` (configuration not stated), the IC50 at Apolipoprotein L1 is above 1 µM.
On the same count and under the same terms, as for `C[C@@H](NCC1CC(c2c(-c3ccc(F)cc3)[nH]c3c(F)cc(F)cc23)C1)C(=O)N(C)C` (some centres not stated), the figure is above 1 µM.
As for `CN1CCC(NC(=O)[C@H]2C[C@H](c3c(-c4ccc(F)cc4)[nH]c4c(F)cc(F)cc43)C2)C1=O` (some centres not stated), the results for the half-maximal inhibitory concentration (IC50) (on Apolipoprotein L1; in test [1]) were below 0.25 µM and 0.25 µM, respectively.
Consider `CC(CO)CNC(=O)[C@H]1C[C@H](c2c(-c3ccc(F)cc3)[nH]c3c(F)cc(F)cc32)C1` (some centres not stated), for which the IC50 came to 0.00025 µM against Apolipoprotein L1 and 0.25 µM in test [1].
For `O=C(CC1CC(c2c(-c3ccc(F)cc3)[nH]c3c(F)cc(F)cc23)C1)N[C@@H]1CCNC1=O` (some centres not stated), at Apolipoprotein L1, the IC50 is above 1 µM.
Regarding `NC(=O)CNC(=O)[C@H]1C[C@H](c2c(-c3ccc(F)cc3)[nH]c3c(F)cc(F)cc32)C1`, the IC50 (against Apolipoprotein L1; in test [1]) was below 0.25 µM in each case.
As to `C[C@@H](CO)NC(=O)CC1CC(c2c(-c3ccc(F)cc3)[nH]c3c(F)cc(F)cc23)C1` (some centres not stated), on Apolipoprotein L1, the half-inhibitory concentration (IC50) was above 1 µM.
As to `O=C1NCCC1NC(=O)[C@H]1C[C@H](c2c(-c3ccc(F)cc3)[nH]c3c(F)cc(F)cc32)C1` (some centres not stated), the IC50 (at Apolipoprotein L1; in test [1]) was below 0.25 µM in each case.
For `CN1CCN(C(=O)CNCC2CC(c3c(-c4ccc(F)cc4)[nH]c4c(F)cc(F)cc34)C2)CC1` (configuration not stated), the IC50 on Apolipoprotein L1 was above 1 µM.
Take `C[C@H](NCC1CC(c2c(-c3ccc(F)cc3)[nH]c3c(F)cc(F)cc23)C1)C(=O)N(C)C` (some centres not stated): it took 0.00025 µM to reach half-maximal inhibition on Apolipoprotein L1 (IC50).
On the same count and under the same terms, as for `O=C(CC1CC(c2c(-c3ccc(F)cc3)[nH]c3c(F)cc(F)cc23)C1)N[C@H]1CCNC1=O` (some centres not stated), the figure is above 1 µM.
`NCC(O)CNC(=O)[C@H]1C[C@H](c2c(-c3ccc(F)cc3)[nH]c3c(F)cc(F)cc32)C1` (some centres not stated): the figures for the IC50 (at Apolipoprotein L1; in test [1]) were 0.00025 µM and 0.25 µM, respectively.
In the case of `CON(C)C(=O)CNC[C@H]1C[C@H](c2c(-c3ccc(F)cc3)[nH]c3c(F)cc(F)cc32)C1`, on Apolipoprotein L1, 0.00025 µM corresponded to half-maximal inhibition (IC50).
Same read-out and setting: as for `C[C@H](CO)NC(=O)C1CCC(c2c(-c3ccc(F)cc3)[nH]c3c(F)cc(F)cc23)C1` (some centres not stated), the figure is above 1 µM; as for `C[C@H](CO)NC(=O)CC1CC(c2c(-c3ccc(F)cc3)[nH]c3c(F)cc(F)cc23)C1` (some centres not stated), above 1 µM; as for `O=C(NCC(F)F)N1CC(c2c(-c3ccc(F)cc3)[nH]c3c(F)cc(F)cc23)C1`, 0.00025 µM.
At Apolipoprotein L1, `COCCNC(=O)CC1CC(c2c(-c3ccc(F)cc3)[nH]c3c(F)cc(F)cc23)C1` (configuration not stated) came in with an IC50 above 1 µM.
At Apolipoprotein L1, `CCNC(=O)N1CC(c2c(-c3ccc(F)cc3)[nH]c3c(F)cc(F)cc23)C1` came in with an IC50 of 0.00025 µM.
Take `Cc1cc(NC(=O)[C@H]2C[C@H](c3c(-c4ccc(F)cc4)[nH]c4c(F)cc(F)cc43)C2)no1`: the IC50 came to 0.00025 µM at Apolipoprotein L1 and 0.25 µM in test [1].
As to `CC(C)NC(=O)CNC[C@H]1C[C@H](c2c(-c3ccc(F)cc3)[nH]c3c(F)cc(F)cc32)C1`, the half-maximal inhibitory concentration (IC50) against Apolipoprotein L1 was above 1 µM.
In the case of `CC[C@H](NCC1CC(c2c(-c3ccc(F)cc3)[nH]c3c(F)cc(F)cc23)C1)C(=O)NCC(F)(F)F` (some centres not stated), on Apolipoprotein L1, the IC50 is above 1 µM.
`O=C(NC(CO)CO)[C@H]1C[C@H](c2c(-c3ccc(F)cc3)[nH]c3c(F)cc(F)cc32)C1`: the IC50 (at Apolipoprotein L1; in test [1]) was below 0.25 µM throughout.
As for `O=C(NC1(CO)CCC1)[C@H]1C[C@H](c2c(-c3ccc(F)cc3)[nH]c3c(F)cc(F)cc32)C1`, the IC50 (on Apolipoprotein L1; in test [1]) was below 0.25 µM throughout.
`O=C(CC1CC(c2c(-c3ccc(F)cc3)[nH]c3c(F)cc(F)cc23)C1)NC1(CO)CCC1` (configuration not stated): the IC50 against Apolipoprotein L1 was above 1 µM.
Regarding `NC(=O)C(CC(F)(F)F)NCC1CC(c2c(-c3ccc(F)cc3)[nH]c3c(F)cc(F)cc23)C1` (configuration not stated), the IC50 at Apolipoprotein L1 was above 1 µM.
`CNC(=O)C(C)NC(=O)[C@H]1C[C@H](c2c(-c3ccc(F)cc3)[nH]c3c(F)cc(F)cc32)C1` (some centres not stated): the results for the half-maximal inhibitory concentration (IC50) (at Apolipoprotein L1; in test [1]) were 0.00025 µM and 0.25 µM, respectively.
`O=C(CNC[C@H]1C[C@H](c2c(-c3ccc(F)cc3)[nH]c3c(F)cc(F)cc32)C1)NC1CC1` yielded an IC50 at Apolipoprotein L1 of 0.00025 µM.
As to `CC(CO)NC(=O)[C@H]1C[C@H](c2c(-c3ccc(F)cc3)[nH]c3c(F)cc(F)cc32)C1` (some centres not stated), the IC50 (against Apolipoprotein L1; in test [1]) was below 0.25 µM in each case.
Regarding `O=C(CC1CC(c2c(-c3ccc(F)cc3)[nH]c3c(F)cc(F)cc23)C1)NC1(CO)CC1` (configuration not stated), the IC50 at Apolipoprotein L1 is 0.00025 µM.
The same measure, in the same setting: as for `O=C(CC1CC(c2c(-c3ccc(F)cc3)[nH]c3c(F)cc(F)cc23)C1)NCCO` (configuration not stated), the figure is above 1 µM.
Regarding `CC(C)(NC(=O)[C@H]1C[C@H](c2c(-c3ccc(F)cc3)[nH]c3c(F)cc(F)cc32)C1)C(N)=O`, the IC50 on Apolipoprotein L1 is 0.00025 µM; in test [1], below 0.25 µM.
For `O=C(N[C@H]1CCNC1=O)O[C@H]1C[C@H](c2c(-c3ccc(F)cc3)[nH]c3c(F)cc(F)cc32)C1` (relative stereo), the concentration for half-maximal inhibition (IC50) on Apolipoprotein L1 is above 1 µM.
The molecule `O=C(NC[C@@H](O)C(F)(F)F)NC[C@H]1C[C@H](c2c(-c3ccc(F)cc3)[nH]c3c(F)cc(F)cc32)C1` (relative stereo) registered a 50% inhibitory concentration (IC50) on Apolipoprotein L1 above 1 µM.
